In patent US11078216B2, “Bisaryl amides as NRF2 activators” (GLAXOSMITHKLINE INTELLECTUAL PROPERTY DEVELOPMENT LIMITED, priority 2016, dated 2021) one finds EC50 data, which are given here for 19 molecules.

The test deals with NRF2 (NQO1 activity as marker for NRF2 activation), BEAS-2B cells. As to the kind of experiment: BEAS-2B NQO1 MTT Assay. Format: cell-based. The following applies: Homo sapiens, EC50 of NQO1 specific activity induction, 48 hours incubation, read-out: EC50. An outline of the steps: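 BEAS-2B cells were exposed to compound for 48 h at 37° C, 5% CO2, then lysed. NQO1 activity was measured kinetically by MTT reduction at 570 nm over 30 minutes; EC50 came from 3-parameter fit of Delta OD/min versus log concentration.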

As for `CC[C@@H]1CN(Cc2cc([C@H](CC(=O)n3nccc3N)c3ccc4c(nnn4CC)c3C)ccc2C)S(=O)(=O)c2cccnc2O1` [Example 7, (S)-1-(5-Amino-1H-pyrazol-1-yl)-3-(3-(((R)-4-ethyl-1,1-dioxido-3,4-dihydro-2H-pyrido[2,3-b][1,4,5]oxathiazepin-2-yl)methyl)-4-methylphenyl)-3-(1-ethyl-4-methyl-1H-benzo[d][1,2,3]triazol-5-yl)propan-1-one], the concentration for a half-maximal effect (EC50) – broadly, the concentration that produces a half-maximal response – fell in the range of 1 to 10 nM. Take `CC[C@@H]1CN(Cc2cc([C@@H](c3ccc4c(nnn4CC)c3C)C(C)(C)NC(=O)CCCNC(C)=O)ccc2C)S(=O)(=O)c2ccccc2O1` [Example 133, 4-Acetamido-N-((S)-1-(3-(((R)-4-ethyl-1,1-dioxido-3,4-dihydro-2H-benzo[b][1,4,5]oxathiazepin-2-yl)methyl)-4-methylphenyl)-1-(1-ethyl-4-methyl-1H-benzo[d][1,2,3]triazol-5-yl)-2-methylpropan-2-yl)butanamide]: the concentration giving a half-maximal response (EC50) was in the range of 1000 to 10000 nM. In the case of `CCn1nnc2c(C)c([C@H](c3ccc(C)c(CN4C[C@@H](C)Cc5ccc(C(F)(F)F)cc5S4(=O)=O)c3)[C@@H](C)C(=O)Nc3cccnc3)ccc21` [Example 179, (2R,3S)-3-(1-ethyl-4-methyl-1H-benzo[d][1,2,3]triazol-5-yl)-2-methyl-3-(4-methyl-3-(((S)-4-methyl-1,1-dioxido-8-(trifluoromethyl)-4,5-dihydrobenzo[f][1,2]thiazepin-2(3H)-yl)methyl)phenyl)-N-(pyridin-3-yl)propanamide], the EC50 is 1 to 10 nM. Consider `CCn1nnc2c(C)c([C@H](c3ccc(C)c(CN4C[C@H](C)Cc5ccccc5S4(=O)=O)c3)C(C)(C)C(=O)Nc3cccnc3)cc(OC)c21` [Example 59, (S)-3-(1-Ethyl-7-methoxy-4-methyl-1H-benzo[d][1,2,3]triazol-5-yl)-2,2-dimethyl-3-(4-methyl-3-(((R)-4-methyl-1,1-dioxido-4,5-dihydrobenzo[f][1,2]thiazepin-2(3H)-yl)methyl)phenyl)-N-(pyridin-3-yl)propanamide], for which the concentration for a half-maximal effect (EC50) was 100 to 1000 nM. For the molecule `CC[C@@H]1CN(Cc2cc([C@@H](c3ccc4c(nnn4CC)c3C)C(C)(C)NC(=O)c3cnc(N4CCC4)nc3)ccc2C)S(=O)(=O)c2ccccc2O1` [Example 158, 2-(Azetidin-1-yl)-N—((S)-1-(3-(((R)-4-ethyl-1,1-dioxido-3,4-dihydro-2H-benzo[b][1,4,5]oxathiazepin-2-yl)methyl)-4-methylphenyl)-1-(1-ethyl-4-methyl-1H-benzo[d][1,2,3]triazol-5-yl)-2-methylpropan-2-yl)pyrimidine-5-carboxamide], the EC50 is 10 to 100 nM. As to `COc1cc([C@@H](CC(=O)Nc2cccnc2)c2ccc(C)c(CN3C[C@@H](C)Oc4ccccc4S3(=O)=O)c2)cc2nnn(C)c12` [Example 62, (S)-3-(7-Methoxy-1-methyl-1H-benzo[d][1,2,3]triazol-5-yl)-3-(4-methyl-3-(((R)-4-methyl-1,1-dioxido-3,4-dihydro-2H-benzo[b][1,4,5]oxathiazepin-2-yl)methyl)phenyl)-N-(pyridin-3-yl)propanamide], the EC50 was 10 to 100 nM. For the molecule `CC[C@@H]1CN(Cc2cc([C@@H](c3ccc4c(nnn4CC)c3C)C(C)(C)C(=O)Nc3cnc(CN)nc3)ccc2C)S(=O)(=O)c2ccccc2O1` [Example 196, (S)—N-(2-(Aminomethyl)pyrimidin-5-yl)-3-(3-(((R)-4-ethyl-1,1-dioxido-3,4-dihydro-2H-benzo[b][1,4,5]oxathiazepin-2-yl)methyl)-4-methylphenyl)-3-(1-ethyl-4-methyl-1H-benzo[d][1,2,3]triazol-5-yl)-2,2-dimethylpropanamide], the EC50 fell in the range of 100 to 1000 nM. With `CCOCCNC(=O)C[C@@H](c1ccc(C)c(CN2C[C@@H](CC)Oc3ncccc3S2(=O)=O)c1)c1ccc2c(nnn2CC)c1C` [Example 40, (S)-N-(2-Ethoxyethyl)-3-(3-(((R)-4-ethyl-1,1-dioxido-3,4-dihydro-2H-pyrido[2,3-b][1,4,5]oxathiazepin-2-yl)methyl)-4-methylphenyl)-3-(1-ethyl-4-methyl-1H-benzo[d][1,2,3]triazol-5-yl)propanamide], the 50% effective concentration (EC50) was 100 to 1000 nM. As to `CC[C@@H]1CN(Cc2cc([C@@H](c3ccc4c(nnn4CC)c3C)C(C)(C)C(=O)Nc3cnc(C(C)(C)O[Si](C)(C)C(C)(C)C)nc3)ccc2C)S(=O)(=O)c2ccccc2O1` [Example 187, (S)-N-(2-(2-((tert-Butyldimethylsilyl)oxy)propan-2-yl)pyrimidin-5-yl)-3-(3-(((R)-4-ethyl-1,1-dioxido-3,4-dihydro-2H-benzo[b][1,4,5]oxathiazepin-2-yl)methyl)-4-methylphenyl)-3-(1-ethyl-4-methyl-1H-benzo[d][1,2,3]triazol-5-yl)-2,2-dimethylpropanamide], the half-maximal effective concentration (EC50) lay in the range of 1000 to 10000 nM.

As for `CC[C@@H]1CN(Cc2cc([C@@H](c3ccc4c(nnn4CC)c3C)C(C)(C)NC(=O)c3ccno3)ccc2C)S(=O)(=O)c2ccccc2O1` [Example 152, N-((S)-1-(3-(((R)-4-Ethyl-1,1-dioxido-3,4-dihydro-2H-benzo[b][1,4,5]oxathiazepin-2-yl)methyl)-4-methylphenyl)-1-(1-ethyl-4-methyl-1H-benzo[d][1,2,3]triazol-5-yl)-2-methylpropan-2-yl)isoxazole-5-carboxamide], the EC50 was in the range of 1 to 10 nM.

`CC[C@@H]1CN(Cc2cc([C@@H](c3ccc4c(nnn4CC)c3C)C(C)(C)C(=O)Nc3cnc(CO[Si](C)(C)C(C)(C)C)nc3)ccc2C)S(=O)(=O)c2ccccc2O1` [Example 186, (S)—N-(2-(((tert-Butyldimethylsilyl)oxy)methyl)pyrimidin-5-yl)-3-(3-(((R)-4-ethyl-1,1-dioxido-3,4-dihydro-2H-benzo[b][1,4,5]oxathiazepin-2-yl)methyl)-4-methylphenyl)-3-(1-ethyl-4-methyl-1H-benzo[d][1,2,3]triazol-5-yl)-2,2-dimethylpropanamide]: the concentration for a half-maximal effect (EC50) was in the range of 100 to 1000 nM. As for `CC[C@@H]1CN(Cc2cc([C@@H](c3ccc4c(nnn4CC)c3C)C(C)(C)C(=O)Nc3cnc(N(C)C)nc3)ccc2C)S(=O)(=O)c2cccnc2O1` [Example 130, (S)-N-(2-(Dimethylamino)pyri-midin-5-yl)-3-(3-(((R)-4-ethyl-1,1-dioxido-3,4-dihydro-2H-pyrido[2,3-b][1,4,5]oxathiazepin-2-yl)methyl)-4-methylphenyl)-3-(1-ethyl-4-methyl-1H-benzo[d][1,2,3]triazol-5-yl)-2,2-dimethylpropanamide], the EC50 lay within 1 to 10 nM. For `CC[C@@H]1CN(Cc2cc([C@@H](c3ccc4c(nnn4CC)c3C)C(C)(C)C(=O)Nc3cnc(OCCOC)nc3)ccc2C)S(=O)(=O)c2ccccc2O1` [Example 193, (S)-3-(3-(((R)-4-Ethyl-1,1-dioxido-3,4-dihydro-2H-benzo[b][1,4,5]oxathiazepin-2-yl)methyl)-4-methylphenyl)-3-(1-ethyl-4-methyl-1H-benzo[d][1,2,3]triazol-5-yl)-N-(2-(2-methoxyethoxy)pyrimidin-5-yl)-2,2-dimethylpropanamide] the value was 1 to 10 nM. For `CC[C@@H]1CN(Cc2cc([C@@H](c3ccc4c(nnn4CC)c3C)C(C)(C)C(=O)NCc3ncc[nH]3)ccc2C)S(=O)(=O)c2cccnc2O1` [Example 104, (S)-N-((1H-Imidazol-2-yl)methyl)-3-(3-(((R)-4-ethyl-1,1-dioxido-3,4-dihydro-2H-pyrido[2,3-b][1,4,5]oxathiazepin-2-yl)methyl)-4-methylphenyl)-3-(1-ethyl-4-methyl-1H-benzo[d][1,2,3]triazol-5-yl)-2,2-dimethylpropanamide], the EC50 was in the range of 100 to 1000 nM. Take `CC[C@@H]1CN(Cc2cc([C@@H](c3ccc4c(nnn4CC)c3C)C(C)(C)C(=O)Nc3cnc(CO)nc3)ccc2C)S(=O)(=O)c2ccccc2O1` [Example 194, (S)-3-(3-(((R)-4-Ethyl-1,1-dioxido-3,4-dihydro-2H-benzo[b][1,4,5]oxathiazepin-2-yl)methyl)-4-methylphenyl)-3-(1-ethyl-4-methyl-1H-benzo[d][1,2,3]triazol-5-yl)-N-(2-(hydroxymethyl)pyrimidin-5-yl)-2,2-dimethylpropanamide]: the EC50 lay in the range of 10 to 100 nM. Turning to `CC[C@@H]1CN(Cc2cc([C@H](CC(=O)Nc3ccc(C)nc3)c3ccc4c(nnn4CC)c3C)ccc2C)S(=O)(=O)c2cccnc2O1` [Example 15, (S)-3-(3-(((R)-4-Ethyl-1,1-dioxido-3,4-dihydro-2H-pyrido[2,3-b][1,4,5]oxathiazepin-2-yl)methyl)-4-methylphenyl)-3-(1-ethyl-4-methyl-1H-benzo[d][1,2,3]triazol-5-yl)-N-(6-methylpyridin-3-yl)propanamide], the half-maximal effective concentration (EC50) fell in the range of 100 to 1000 nM. As for `CC[C@@H]1CN(Cc2cc([C@H](CC(=O)NC3CCS(=O)(=O)C3)c3ccc4c(nnn4CC)c3C)ccc2C)S(=O)(=O)c2cccnc2O1` (stereo partly drawn) [Example 5, (3S)-N-(1,1-Dioxidotetrahydrothiophen-3-yl)-3-(3-(((R)-4-ethyl-1,1-dioxido-3,4-dihydro-2H-pyrido[2,3-b][1,4,5]oxathiazepin-2-yl)methyl)-4-methylphenyl)-3-(1-ethyl-4-methyl-1H-benzo[d][1,2,3]triazol-5-yl)propanamide], the EC50 fell in the range of 100 to 1000 nM.

Regarding `CC[C@@H]1CN(Cc2cc([C@H](CC(=O)NC3COC3)c3ccc4c(nnn4CC)c3C)ccc2C)S(=O)(=O)c2cccnc2O1` [Example 4, (S)-3-(3-(((R)-4-Ethyl-1,1-dioxido-3,4-dihydro-2H-pyrido[2,3-b][1,4,5]oxathiazepin-2-yl)methyl)-4-methylphenyl)-3-(1-ethyl-4-methyl-1H-benzo[d][1,2,3]triazol-5-yl)-N-(oxetan-3-yl)propanamide], the EC50 was in the range of 100 to 1000 nM.

Take `CC[C@@H]1CN(Cc2cc([C@H](CC(=O)NCC(=O)NC(C)C)c3ccc4c(nnn4CC)c3C)ccc2C)S(=O)(=O)c2cccnc2O1` [Example 42, (S)-3-(3-(((R)-4-Ethyl-1,1-dioxido-3,4-dihydro-2H-pyrido[2,3-b][1,4,5]oxathiazepin-2-yl)methyl)-4-methylphenyl)-3-(1-ethyl-4-methyl-1H-benzo[d][1,2,3]triazol-5-yl)-N-(2-(isopropylamino)-2-oxoethyl)propanamide]: the EC50 lay within 1000 to 10000 nM.
